Measured values published in patent publication US20200207822A1, “PEPTIDE INHIBITORS OF INTERLEUKIN-23 RECEPTOR AND THEIR USE TO TREAT INFLAMMATORY DISEASES” (Protagonist Therapeutics, Inc., priority 2017, published 2020).
Positions of bridges follow the written chain, without caps; N, C: chain ends. Non-standard residues stand in square brackets, D forms with d. 2Nal = N[C@@H](Cc1ccc2ccccc2c1)C(=O)O; AEF = NCCOc1ccc(C[C@H](N)C(=O)O)cc1; αMeL = CC(C)C[C@](C)(N)C(=O)O; Pen = CC(C)(S)[C@H](N)C(=O)O; Thp = NC1(C(=O)O)CCOCC1; Abu = CC[C@H](N)C(=O)O

T1: interleukin-23 receptor (IL-23R) (human, UniProt Q5VWK5 24-629)
T1 sequence (looked up): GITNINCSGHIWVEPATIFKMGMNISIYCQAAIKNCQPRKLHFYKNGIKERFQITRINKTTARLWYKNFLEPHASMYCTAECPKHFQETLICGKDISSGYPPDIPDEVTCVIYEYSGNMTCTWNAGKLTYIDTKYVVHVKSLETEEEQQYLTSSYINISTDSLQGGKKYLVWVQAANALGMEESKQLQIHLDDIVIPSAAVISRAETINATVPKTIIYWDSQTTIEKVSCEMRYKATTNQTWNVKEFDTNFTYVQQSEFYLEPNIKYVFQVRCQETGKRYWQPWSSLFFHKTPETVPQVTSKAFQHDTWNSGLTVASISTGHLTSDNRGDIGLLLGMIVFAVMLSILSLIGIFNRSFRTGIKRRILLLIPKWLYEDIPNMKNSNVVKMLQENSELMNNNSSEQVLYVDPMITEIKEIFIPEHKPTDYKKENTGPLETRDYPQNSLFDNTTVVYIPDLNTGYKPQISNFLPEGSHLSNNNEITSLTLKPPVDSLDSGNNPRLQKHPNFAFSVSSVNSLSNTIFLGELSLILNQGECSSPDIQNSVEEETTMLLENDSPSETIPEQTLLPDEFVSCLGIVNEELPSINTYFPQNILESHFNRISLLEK

B1: SEQ ID NO 97 (peptide)
peptide: XXQTWXCXXXENN
modifications: Ac-[(D)Arg]-cyclo[[Abu]-QTW-[β-homoGln]-C]-[Phe[4-(2-aminoethoxy)]-[2-Nal]-[4-amino-4-carboxy-tetrahydropyran]-ENN-NH2
B2: SEQ ID NO 107 (peptide)
peptide: XXQTWQCXXXENN
modifications: Ac-[(D)Arg]-cyclo[[Abu]-QTWQC]-[Phe[4-(2-aminoethoxy)]-[2-Nal]-[α-MeLeu]-ENN-NH2
B3: SEQ ID NO 71 (peptide)
peptide: XXQTWQCXXXENN
modifications: Alexa488-[PEG4]-[(D)Arg]-cyclo[[Abu]-QTWQC]-[Phe[4-(2-aminoethoxy)]-[2-Nal]-[4-amino-4-carboxy-tetrahydropyran]-ENN-NH2
B4: SEQ ID NO 106 (peptide)
peptide: XQTXQCXXXENN
modifications: Ac-cyclo[[Abu]-QT-[Trp(5-F)]-QC]-[Phe[4-(2-aminoethoxy)]-[2-Nal]-[α-MeLeu]-ENN-NH2
B5: SEQ ID NO 105 (peptide)
peptide: XXQTXQCXXXENN
modifications: Ac-[(D)Arg]-cyclo[[Abu]-QT-[Trp(5-F)]-QC]-[Phe[4-(2-aminoethoxy)]-[2-Nal]-[α-MeLeu]-ENN-NH2

target: T1, interleukin-23 receptor (IL-23R); assay: cell-based or functional assay; conditions: not given

IC50, pStat3 HTRF (nM)	Molecule
> 100	B1
< 1	B2
< 1	B3
< 1	B4
< 1	B5

tested on: IL-23R-expressing DB cells stimulated with IL-23 (pSTAT3 levels); assay: DB cells IL23R pSTAT3 cell assay (Cisbio HTRF pSTAT3); type: cell-based, human; conditions: Table E2, thioether peptides, IL-23 0.5 nM, 30 minutes at 37° C.
Description: Human ELISA indicates the IL23-IL23R competitive binding assay described below, Rat ELISA indicates the rat IL-23R competitive binding ELISA assay described below, and pStat3HTRF indicates the DB cells IL-23R pSTAT3 cell assay described below. The peptides depicted in Table E1 are cyclized via a disulfide bridge formed between two Pen residues in these peptides. The peptides depicted in Table E2 are cyclized via a thioether bond between the indicated amino acid residues. Table E2 provides an illustrative structure depicting thioether cyclization, which is indicated in the table by the term “cyclo,” with the cyclic region bracketed immediately following the term “cyclo.” For certain peptides, the residue Abu is present where indicated, whereas in other embodiments, e.g., those related to the non-cyclized form, the Abu may be referred to as a hSer(Cl) or homoSer residue.
DB Cells IL23R pSTAT3 Cell Assay
IL-23 plays a central role in supporting and maintaining Th17 differentiation in vivo. […] This cell assay examines the levels of pSTAT3 in IL-23R-expressing DB cells when stimulated with IL-23 in the presence of test compounds.

IC50 [nM]	Molecule
10 to 100	99 (XXQTWFCXXXENN; MOD_RES (1)..(1) D-form arginine; MOD_RES (2)..(2) Abu; (2)..(7) residues cyclosized; MOD_RES (8)..(8) 4-(2-aminoethoxy)-L-phenylalanine; MOD_RES (9)..(9) L-2-Napthylalanine; MOD_RES (10)..(10) 4-amino-4-carboxy-tetrahydropyran) [compound 99]
1 to 10	75 (XXQTWECXXXENN; MOD_RES (1)..(1) D-form arginine; MOD_RES (2)..(2) Abu; (2)..(7) residues cyclosized; MOD_RES (8)..(8) 4-(2-aminoethoxy)-L-phenylalanine; MOD_RES (9)..(9) L-2-Napthylalanine; MOD_RES (10)..(10) 4-amino-4-carboxy-tetrahydropyran) [compound 75]
1 to 10	86 (XXQTWECXXXENN; MOD_RES (1)..(1) D-form arginine; MOD_RES (2)..(2) Abu; (2)..(7) residues cyclosized; MOD_RES (8)..(8) 4-(2-aminoethoxy)-L-phenylalanine; MOD_RES (9)..(9) L-2-Napthylalanine; MOD_RES (10)..(10) 4-amino-4-carboxy-tetrahydropyran) [compound 86]
10 to 100	81 (Ac-[dR][Abu]ETWQC[AEF][2Nal][Thp]EDN-NH2; thioether 2-7) [compound 81]
1 to 10	73 (XXQTWQCXXXEND; MOD_RES (1)..(1) D-form arginine; MOD_RES (2)..(2) Abu; (2)..(7) residues cyclosized; MOD_RES (8)..(8) 4-(2-aminoethoxy)-L-phenylalanine; MOD_RES (9)..(9) L-2-Napthylalanine; MOD_RES (10)..(10) 4-amino-4-carboxy-tetrahydropyran) [compound 73]
10 to 100	84 (XXQTWQCXXXEND; MOD_RES (1)..(1) D-form arginine; MOD_RES (2)..(2) Abu; (2)..(7) residues cyclosized; MOD_RES (8)..(8) 4-(2-aminoethoxy)-L-phenylalanine; MOD_RES (9)..(9) L-2-Napthylalanine; MOD_RES (10)..(10) 4-amino-4-carboxy-tetrahydropyran) [compound 84]
1 to 10	82 (Ac-[dR][Abu]ETWEC[AEF][2Nal][Thp]ENN-NH2; thioether 2-7) [compound 82]
10 to 100	77 (Ac-[dR][Abu]QTWQC[AEF][2Nal][Thp]EDD-NH2; thioether 2-7) [compound 77]
10 to 100	85 (XXQTWQCXXXEDN; MOD_RES (1)..(1) D-form arginine; MOD_RES (2)..(2) Abu; (2)..(7) residues cyclosized; MOD_RES (8)..(8) 4-(2-aminoethoxy)-L-phenylalanine; MOD_RES (9)..(9) L-2-Napthylalanine; MOD_RES (10)..(10) 4-amino-4-carboxy-tetrahydropyran) [compound 85]
10 to 100	74 (XXQTWQCXXXEDN; MOD_RES (1)..(1) D-form arginine; MOD_RES (2)..(2) Abu; (2)..(7) residues cyclosized; MOD_RES (8)..(8) 4-(2-aminoethoxy)-L-phenylalanine; MOD_RES (9)..(9) L-2-Napthylalanine; MOD_RES (10)..(10) 4-amino-4-carboxy-tetrahydropyran) [compound 74]
1 to 10	79 (Ac-[dR][Abu]ETWQC[AEF][2Nal][Thp]END-NH2; thioether 2-7) [compound 79]
10 to 100	80 (Ac-[dR][Abu]QTWEC[AEF][2Nal][Thp]EDN-NH2; thioether 2-7) [compound 80]

same assay, conditions: Table L3 (E3), additional peptide inhibitors, IL-23 0.5 nM, 30 minutes at 37° C.

IC50 [nM]	Molecule
1 to 10	154 (XXQTWKCXXXENN; MOD_RES (1)..(1) D-form arginine; MOD_RES (2)..(2) Abu; (2)..(7) residues cyclosized; MOD_RES (6)..(6) PEG12 conjugation; MOD_RES (8)..(8) 4-(2-aminoethoxy)-L-phenylalanine; MOD_RES (9)..(9) L-2-Napthylalanine; MOD_RES (10)..(10) 4-amino-4-carboxy-tetrahydropyran) [compound 154]
1 to 10	156 (XXQTWQCXXXKNN; MOD_RES (1)..(1) D-form arginine; MOD_RES (2)..(2) Abu; (2)..(7) residues cyclosized; MOD_RES (8)..(8) 4-(2-aminoethoxy)-L-phenylalanine; MOD_RES (9)..(9) L-2-Napthylalanine; MOD_RES (10)..(10) 4-amino-4-carboxy-tetrahydropyran; MOD_RES (11)..(11) PEG12 conjugation) [compound 156]
1 to 10	180 (Ac-K(Ac)[Pen]NTWQ[Pen][4‑Carbamoyl‑L‑phenylalanine][2Nal][αMeL]K(Ac)NN-NH2; disulfide 2-7 (inferred)) [compound 180]
1 to 10	163 (XNTWQXXXXKNNG; MOD_RES (1)..(1) L-Penicillamine; MOD_RES (6)..(6) L-Penicillamine; MOD_RES (7)..(7) 4-(2-aminoethoxy)-L-phenylalanine; MOD_RES (8)..(8) L-2-Napthylalanine; MOD_RES (9)..(9) alpha-methyl-L-Leucine; MOD_RES (10)..(10) …ON) [compound 163]
1 to 10	181 (XNTWQXXXXKNNK; MOD_RES (1)..(1) L-Penicillamine; MOD_RES (6)..(6) L-Penicillamine; MOD_RES (7)..(7) 4-(2-aminoethoxy)-L-phenylalanine; MOD_RES (8)..(8) L-2-Napthylalanine; MOD_RES (9)..(9) alpha-methyl-L-Leucine; MOD_RES (10)..(10) …ON; MOD_RES (13)..(13) …ON) [compound 181]
1 to 10	160 (XNTWQXXXXKNNW; MOD_RES (1)..(1) L-Penicillamine; MOD_RES (6)..(6) L-Penicillamine; MOD_RES (7)..(7) 4-(2-aminoethoxy)-L-phenylalanine; MOD_RES (8)..(8) L-2-Napthylalanine; MOD_RES (9)..(9) alpha-methyl-L-Leucine; MOD_RES (10)..(10) …ON) [compound 160]
1 to 10	179 (Ac-K(Ac)[Pen]NTWQ[Pen][AEF][2Nal][αMeL]K(Ac)NN-NH2; disulfide 2-7 (inferred)) [compound 179]
1 to 10	158 (XNTWQXXXXKNND; MOD_RES (1)..(1) L-Penicillamine; MOD_RES (6)..(6) L-Penicillamine; MOD_RES (7)..(7) 4-(2-aminoethoxy)-L-phenylalanine; MOD_RES (8)..(8) L-2-Napthylalanine; MOD_RES (9)..(9) alpha-methyl-L-Leucine; MOD_RES (10)..(10) …ON) [compound 158]
1 to 10	182 (Ac-[Pen]NTWQ[Pen][4‑Carbamoyl‑L‑phenylalanine][2Nal][αMeL]K(Ac)NNK(Ac)-NH2; disulfide 1-6 (inferred)) [compound 182]
